The record followed here is patent publication US20060063759A1, “Tricyclic steroid hormone nuclear receptor modulators” (priority 2002, published 2006).

The Ki is the dissociation constant of the complex between target and ligand, obtained from inhibition or displacement.

One assay deals with T1, glucocorticoid receptor (Homo sapiens, UniProt P04150).
T1 construct: containing 50-200 ug of A549 cell extract and 1.86 nM [^3H]-dexamethasone; host or cells: A549 human lung epithelial cells (sonicated cell extract)
T1 sequence (P04150 1-777): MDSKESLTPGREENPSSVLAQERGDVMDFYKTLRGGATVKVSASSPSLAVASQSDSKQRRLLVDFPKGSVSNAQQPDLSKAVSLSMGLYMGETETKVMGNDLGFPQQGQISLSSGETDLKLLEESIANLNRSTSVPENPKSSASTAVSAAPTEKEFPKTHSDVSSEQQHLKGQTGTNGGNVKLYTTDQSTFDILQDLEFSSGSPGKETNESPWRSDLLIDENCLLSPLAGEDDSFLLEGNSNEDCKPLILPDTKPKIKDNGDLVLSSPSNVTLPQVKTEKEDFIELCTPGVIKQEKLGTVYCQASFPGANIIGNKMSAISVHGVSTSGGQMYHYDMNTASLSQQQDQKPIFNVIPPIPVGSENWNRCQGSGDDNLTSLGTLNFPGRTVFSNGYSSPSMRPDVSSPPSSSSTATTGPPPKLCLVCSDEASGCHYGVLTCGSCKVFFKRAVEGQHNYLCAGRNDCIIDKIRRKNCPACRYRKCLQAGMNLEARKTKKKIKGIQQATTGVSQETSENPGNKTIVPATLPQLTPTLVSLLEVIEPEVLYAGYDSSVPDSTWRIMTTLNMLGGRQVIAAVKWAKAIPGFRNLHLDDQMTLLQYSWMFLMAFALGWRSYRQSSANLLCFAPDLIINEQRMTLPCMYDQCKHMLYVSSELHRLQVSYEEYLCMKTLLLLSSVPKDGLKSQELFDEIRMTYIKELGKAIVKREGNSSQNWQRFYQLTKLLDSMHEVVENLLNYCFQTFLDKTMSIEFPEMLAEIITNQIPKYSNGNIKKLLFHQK
The experiment in a line: Glucocorticoid Receptor Binding Assay ([3H]-dexamethasone, A549 cell extract). The note with it: [3H]-dexamethasone binding, read-out: GR Ki. A digest of the protocol:
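Displacement of [3H]-dexamethasone (1.86 nM) from glucocorticoid receptor in sonicated A549 lung epithelial cell extracts, 16 h at 4 °C, pH 7.2 molybdate-containing buffer. Bound radioactivity was scintillation-counted after charcoal/dextran stripping of free ligand.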

The target in a further assay is T2, human MR (Homo sapiens, UniProt P08235).
T2 construct: The full length human MR gene is cloned from a human kidney or human brain cDNA library; His tag from the pAcHLT vector (own knowledge); made in house; host or cells: Sf9 insect cells (baculovirus, pAcHLT transfer vector)
T2 sequence (P08235 1-984): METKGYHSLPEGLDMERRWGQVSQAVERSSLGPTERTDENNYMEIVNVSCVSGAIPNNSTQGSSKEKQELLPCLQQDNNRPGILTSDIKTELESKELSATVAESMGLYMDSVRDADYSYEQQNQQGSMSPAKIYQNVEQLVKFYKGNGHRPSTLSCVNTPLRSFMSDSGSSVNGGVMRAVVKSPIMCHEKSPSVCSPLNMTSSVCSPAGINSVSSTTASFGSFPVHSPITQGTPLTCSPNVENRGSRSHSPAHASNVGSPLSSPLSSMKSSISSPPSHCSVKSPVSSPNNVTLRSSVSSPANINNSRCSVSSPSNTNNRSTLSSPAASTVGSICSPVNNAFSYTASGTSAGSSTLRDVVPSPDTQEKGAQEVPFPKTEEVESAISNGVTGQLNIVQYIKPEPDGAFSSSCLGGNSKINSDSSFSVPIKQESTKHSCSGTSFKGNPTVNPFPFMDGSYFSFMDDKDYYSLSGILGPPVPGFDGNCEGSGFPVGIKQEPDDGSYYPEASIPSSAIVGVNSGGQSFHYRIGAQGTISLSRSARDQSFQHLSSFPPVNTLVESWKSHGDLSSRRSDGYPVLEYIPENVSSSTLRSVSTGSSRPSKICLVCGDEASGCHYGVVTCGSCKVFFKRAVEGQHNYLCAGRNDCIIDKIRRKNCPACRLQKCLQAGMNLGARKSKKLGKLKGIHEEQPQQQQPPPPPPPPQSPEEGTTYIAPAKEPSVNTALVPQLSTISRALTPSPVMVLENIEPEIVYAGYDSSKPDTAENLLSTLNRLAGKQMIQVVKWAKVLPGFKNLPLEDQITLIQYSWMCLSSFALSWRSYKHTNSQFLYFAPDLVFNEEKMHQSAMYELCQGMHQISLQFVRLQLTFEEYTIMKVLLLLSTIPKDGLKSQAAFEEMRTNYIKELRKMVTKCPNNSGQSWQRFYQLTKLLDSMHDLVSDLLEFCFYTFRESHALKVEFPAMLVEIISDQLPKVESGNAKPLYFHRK
The experiment in a line: Mineralocorticoid Receptor Binding Assay ([3H]-aldosterone). As to conditions: [3H]-aldosterone binding, human MR expressed in Sf9 cells; read-out: MR Ki. A digest of the protocol:
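Receptor source: freeze-thaw lysate of baculovirus-infected Sf9 cells carrying full-length human MR, 20-25 μg protein. Incubation ~16 h at 4 °C with shaking, pH 7.5 buffer containing 30 mM sodium molybdate and 10% glycerol.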

A value given as a limit tells only on which side of the number the result lay.

Consider `CC(=O)Nc1nc(C)c(S(=O)(=O)Nc2cccc(C=C3c4ccccc4CCc4cc(Cl)ccc43)c2)s1` [Example 297], for which the inhibition constant Ki is below 10000 nM at glucocorticoid receptor and below 500 nM on human MR.

In the case of `O=C(CO)c1cccc(C=C2c3ccccc3CCc3cc(Cl)ccc32)c1` [Example 298], the Ki on glucocorticoid receptor was below 10000 nM; on human MR, below 500 nM.

As for `COCC(=O)Nc1cccc(C=C2c3ccccc3CCc3cc(Cl)ccc32)c1` [Example 299], the Ki was below 1000 nM at glucocorticoid receptor and below 500 nM on human MR.

As to `O=C(CO)Nc1cccc(C=C2c3ccccc3CCc3cc(Cl)ccc32)c1` [Example 300], the Ki on glucocorticoid receptor is below 1000 nM; on human MR, below 500 nM.

As to `Cc1ccc2c(c1)C(=Cc1cccc(NS(C)(=O)=O)c1)c1ccccc1CC2` [Example 301], the inhibitory constant (Ki) on glucocorticoid receptor and on human MR was below 500 nM each time.

Take `Cc1ccc2c(c1)CCc1ccccc1C2=Cc1cccc(NS(C)(=O)=O)c1` [Example 302]: the Ki on glucocorticoid receptor and at human MR was below 500 nM each time.

As to `Cc1cccc2c1CCc1ccccc1C2=Cc1cccc(NS(C)(=O)=O)c1` [Example 303], the inhibition constant Ki on glucocorticoid receptor and at human MR was below 500 nM each time.

On to `Cc1cccc2c1C(=Cc1cccc(NS(C)(=O)=O)c1)c1ccccc1CC2` [Example 304], for which the Ki on glucocorticoid receptor and on human MR was below 500 nM each time.

As for `Cc1ccc2c(c1)C(=Cc1ccc(NS(C)(=O)=O)cc1)c1ccccc1CC2` [Example 305], the Ki on glucocorticoid receptor was below 1000 nM; on human MR, below 500 nM.

On to `CS(=O)(=O)Nc1cccc(/C=C2/c3ccccc3CCc3cc(-c4ccccc4)ccc32)c1` [Example 306], for which the inhibition constant Ki at glucocorticoid receptor was below 1000 nM; on human MR, below 500 nM.

In the case of `Cc1cccc2c1CCc1ccccc1C2=Cc1ccc(NS(C)(=O)=O)cc1` [Example 307], the Ki at glucocorticoid receptor was below 1000 nM; on human MR, below 500 nM.

Consider `CS(=O)(=O)Nc1cccc(/C=C2\c3ccccc3CCc3cc(-c4ccccc4)ccc32)c1` [Example 308], for which the inhibition constant (Ki) at glucocorticoid receptor is below 10000 nM; at human MR, below 500 nM.

Consider `Cc1ccc2c(c1)CCc1ccccc1C2=Cc1ccc(NS(C)(=O)=O)cc1` [Example 309], for which the results for the Ki on glucocorticoid receptor and on human MR were below 1000 nM and below 500 nM, respectively.

For the molecule `Cc1cccc2c1C(=Cc1ccc(NS(C)(=O)=O)cc1)c1ccccc1CC2` [Example 310], the inhibition constant (Ki) was below 1000 nM at glucocorticoid receptor and below 500 nM on human MR.

`Cc1cccc2c1CCc1ccccc1/C2=C/c1cccc(NS(C)(=O)=O)c1` [Example 311]: the Ki on glucocorticoid receptor and on human MR was below 500 nM in each case.

Turning to `Cc1cccc2c1CCc1ccccc1/C2=C\c1cccc(NS(C)(=O)=O)c1` [Example 312], the inhibitory constant (Ki) on glucocorticoid receptor and on human MR was below 500 nM each time.

Turning to `Cc1cccc2c1/C(=C\c1cccc(NS(C)(=O)=O)c1)c1ccccc1CC2` [Example 314], the Ki on glucocorticoid receptor and on human MR was below 500 nM each time.

As to `Cc1cccc2c1CCc1ccccc1/C2=C/c1ccc(NS(C)(=O)=O)cc1` [Example 315], the results for the Ki on glucocorticoid receptor and at human MR were below 10000 nM and below 500 nM, respectively.

As for `Cc1cccc2c1CCc1ccccc1/C2=C\c1ccc(NS(C)(=O)=O)cc1` [Example 316], the Ki on glucocorticoid receptor and on human MR was below 500 nM each time.

Regarding `Cc1ccc2c(c1)CCc1ccccc1/C2=C/c1ccc(NS(C)(=O)=O)cc1` [Example 317], the values for the Ki on glucocorticoid receptor and at human MR were below 10000 nM and below 500 nM, respectively.

For the molecule `Cc1ccc2c(c1)CCc1ccccc1/C2=C\c1ccc(NS(C)(=O)=O)cc1` [Example 318], the Ki was below 1000 nM on glucocorticoid receptor and below 500 nM at human MR.

As for `CSc1cccc2c1CCc1ccccc1C2=Cc1cccc(NS(C)(=O)=O)c1` [Example 319], the inhibition constant Ki at glucocorticoid receptor and at human MR was below 500 nM in each case.

`CSc1ccc2c(c1)C(=Cc1cccc(NS(C)(=O)=O)c1)c1ccccc1CC2` [Example 320]: the inhibitory constant (Ki) on glucocorticoid receptor and on human MR was below 500 nM each time.

For `CS(=O)(=O)Nc1cccc(C=C2c3ccccc3CCc3ccc(S(C)(=O)=O)cc32)c1` [Example 321], the Ki on glucocorticoid receptor and on human MR was below 500 nM each time.

In the case of `CSc1ccc2c(c1)/C(=C\c1cccc(NS(C)(=O)=O)c1)c1ccccc1CC2` [Example 322], the Ki at glucocorticoid receptor and on human MR was below 500 nM in each case.

For `CS(=O)(=O)Nc1cccc(/C=C2/c3ccccc3CCc3ccc(S(C)(=O)=O)cc32)c1` [Example 323], the inhibition constant Ki at glucocorticoid receptor and on human MR was below 500 nM in each case.

`Cc1ccc2c(c1)CCc1cc(C)ccc1C2=Cc1cccc(NS(C)(=O)=O)c1` [Example 325]: the Ki on glucocorticoid receptor and on human MR was below 500 nM in each case.

With `Cc1ccc2c(c1)CCc1ccccc1/C2=C/c1cccc(NS(C)(=O)=O)c1` [Example 326], the Ki on glucocorticoid receptor and on human MR was below 500 nM throughout.

With `Cc1ccc2c(c1)CCc1ccccc1/C2=C\c1cccc(NS(C)(=O)=O)c1` [Example 327], the Ki on glucocorticoid receptor and on human MR was below 500 nM in each case.

Turning to `CS(=O)(=O)Nc1cccc(C=C2c3ccccc3CCc3cc(OCCc4ccccc4)ccc32)c1` [Example 330], the Ki on glucocorticoid receptor and at human MR was below 500 nM in each case.

Regarding `COc1ccc2c(c1)CCc1cc(OC)ccc1C2=Cc1ccc(OCCN2CCCCC2)cc1` [Example 333], the Ki on glucocorticoid receptor and at human MR was below 500 nM in each case.

As to `Oc1cccc(/C=C2/c3ccccc3CCc3cc(C(F)F)ccc32)c1` [Example 334], the Ki on glucocorticoid receptor and on human MR was below 500 nM throughout.

For the molecule `Oc1cccc(/C=C2\c3ccccc3CCc3cc(C(F)F)ccc32)c1` [Example 335], the inhibitory constant (Ki) on glucocorticoid receptor and on human MR was below 500 nM throughout.

Take `N#Cc1ccc(C=C2c3ccccc3CCc3cc(F)ccc32)cc1F` [Example 336]: the figures for the Ki at glucocorticoid receptor and on human MR were below 10000 nM and below 500 nM, respectively.

As for `CS(=O)(=O)Nc1ccc2c(c1)CCc1ccccc1/C2=C\c1cccc(O)c1` [Example 338], the values for the Ki on glucocorticoid receptor and on human MR were below 1000 nM and below 500 nM, respectively.

Consider `CS(=O)(=O)Nc1cccc(/C=C2\c3ccccc3CCc3cc(NS(C)(=O)=O)ccc32)c1` [Example 339], for which the inhibition constant Ki on glucocorticoid receptor and on human MR was below 500 nM throughout.

For `N#Cc1ccc2c(c1)CCc1ccccc1/C2=C/c1cccc(O)c1` [Example 340], the inhibition constant (Ki) at glucocorticoid receptor and on human MR was below 500 nM each time.

For `N#Cc1ccc2c(c1)CCc1ccccc1/C2=C\c1cccc(O)c1` [Example 341], the inhibitory constant (Ki) on glucocorticoid receptor and on human MR was below 500 nM each time.

In the case of `CS(=O)(=O)Nc1cccc(/C=C2/c3ccccc3CCc3cc(C#N)ccc32)c1` [Example 342], the inhibition constant Ki at glucocorticoid receptor and on human MR was below 500 nM throughout.

As to `CS(=O)(=O)Nc1cccc(/C=C2\c3ccccc3CCc3cc(-c4nn[nH]n4)ccc32)c1` [Example 343], the Ki at glucocorticoid receptor was below 500 nM; on human MR, below 1000 nM.
